From EPA's ToxValDB 9.5 (doi:10.2903/j.efsa.2014.3508)

Experiments:
Typhlodromus pyri = experiment: LR50; higher = less toxic; conditions: chronic/long-term; duration: 7 days; mortality
Aphidius rhopalosiphi = experiment: LR50; higher = less toxic; conditions: acute; duration: 48 hours; mortality
Lepomis macrochirus = conditions: acute; duration: 96 hours; mortality
Coturnix japonica = conditions: reproduction developmental; duration: 6 weeks; reproduction
Colinus virginianus = conditions: acute, oral, mortality
Oncorhynchus mykiss = conditions: chronic/long-term; duration: 87 days; growth
Apis mellifera = conditions: acute, mortality
Daphnia magna = conditions: chronic/long-term; duration: 21 days; mobility
Oryctolagus sp. = conditions: developmental; development

Structure (SMILES): CCOc1nc(NC)nc(NC(=O)NS(=O)(=O)c2ccccc2C(=O)OC)n1 [Ethametsulfuron-methyl]
- LR50 (Typhlodromus pyri): 11.4 g/ha
- LR50 (Aphidius rhopalosiphi): > 18.8 g/ha
- LC50 (Lepomis macrochirus): > 123 µg/mL
- NOAEL (Coturnix japonica): 229 mg/kg-day
- LC50 (Tagia sp.; acute, duration: 14 days, mortality): 116 mg/kg
- NOEC (Tagia sp.; chronic/long-term, duration: 56 days, reproduction): 27.3 mg/kg
- LC50 (Colinus virginianus; duration: 5 days, diet): > 1160 mg/kg-day
- LD50 (Colinus virginianus): 2250 mg/kg-day
- NOEC (Oncorhynchus mykiss): 5.4 mg/L
- LD50 (Apis mellifera; duration: 48 hours, oral, unspecified): 40.8 µg/piece
- LD50 (Apis mellifera; duration: 72 hours, dermal): 4.62 µg/piece
- NOEC (Daphnia magna): 4.7 mg/L
- LD50 (Rattus norvegicus; acute, oral, mortality): > 5000 mg/kg-day
- NOAEL (Rattus norvegicus; chronic, duration: 2 years, clinical chemistry): 21 mg/kg-day
- NOAEL (Oryctolagus sp.): < 250 mg/kg-day
